How the values were obtained:
[1] = biological target: T1, human IBAT (Homo sapiens, UniProt Q12908); experiment: IBAT counter screen, [3H]taurocholic acid uptake in IBAT-transfected HEK293 cells; type: cell-based; settings: for EC50: read-out: pEC50 human IBAT (converted)
T1 construct: expressed in transfected cells; host or cells: HEK293
T1 sequence (Q12908 1-348): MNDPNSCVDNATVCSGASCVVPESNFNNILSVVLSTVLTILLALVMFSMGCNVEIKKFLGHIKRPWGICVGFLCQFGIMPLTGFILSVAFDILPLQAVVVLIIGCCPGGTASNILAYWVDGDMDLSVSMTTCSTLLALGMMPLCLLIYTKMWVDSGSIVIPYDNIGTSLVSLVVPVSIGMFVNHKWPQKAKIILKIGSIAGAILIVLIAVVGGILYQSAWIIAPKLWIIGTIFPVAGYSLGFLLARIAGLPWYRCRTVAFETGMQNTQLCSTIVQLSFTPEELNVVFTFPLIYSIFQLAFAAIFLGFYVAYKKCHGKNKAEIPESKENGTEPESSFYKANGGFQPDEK
Protocol: Following a 40-min incubation, the solution was removed, and the cells were washed twice with uptake buffer. Cells were lysed by addition of 20 μL 0.1% Tween 80 followed by 100 μL scintillation fluid and counted using a TopCount (Perkin Elmer).

[2] = Compound plasma concentration, LC-MS/MS, 8 h post dose; type: in vivo; settings: 30 mg/kg; for Number of Mice with Plasma Concentration < LLOQ: mice below LLOQ / mice in group; for concentration at 8 h: male, C57BL/6, mouse, mice, plasma, read-out: Mean Example Plasma Concentration
Protocol: (§1) Eight hours later, each mouse was heavily anesthetized with isoflurane, the peritoneal cavity was opened and the gallbladder, with its entire contents, was carefully excised and weighed. Blood was collected from the left ventricle of the heart and processed to plasma in EDTA-coated tubes containing aprotinin and DPPIV inhibitor for measurement of total GLP-1 (K150FCC; Meso Scales Discovery, Gaithersburg Md.).
Plasma samples were treated with acetonitrile containing an internal standard, precipitated proteins removed by centrifugation. Supernatants were analyzed by LC-MS/MS and compound concentrations were determined by interpolated from a standard curve prepared in plasma.

[3] = Compound concentration in gall bladder, LC-MS/MS, 8 h post dose; type: in vivo; settings: 30 mg/kg; for Number of Mice with Gallbladder Concentration < LLOQ: mice below LLOQ / mice in group; for concentration at 8 h: male, C57BL/6, mouse, with contents, mice, gallbladder homogenate, read-out: Mean Example Gallbladder Concentration
Protocol: as §1
Compound concentrations in the gall bladder were determined as follows: each mouse was heavily anesthetized with isoflurane, the peritoneal cavity was opened and the gallbladder, with its entire contents, was carefully excised. After harvest, gall bladders were homogenized in 100 μL water using a micro-homogenizer. Samples of homogenate were diluted 1:5 in water and precipitated with three volumes of neat acetonitrile. After centrifugation, supernatants were analyzed by LC-MS/MS. The level of test compound present in gall bladder samples was interpolated from a standard curve for each individual compound prepared in a matrix of gallbladder homogenate from vehicle treated animals.

[4] = biological target: T2, human TGR5 (Homo sapiens, UniProt Q8TDU6); experiment: Cell-based TGR5 assay, HEK293 cells stably expressing human TGR5, cAMP by HTRF; settings: pEC50 Human TGR5, HEK293 cells stably expressing human TGR5, 30 min at 37 C, 0.05 nM to 10 μM
T2 construct: expressed in transfected cells
T2 sequence (Q8TDU6 1-330): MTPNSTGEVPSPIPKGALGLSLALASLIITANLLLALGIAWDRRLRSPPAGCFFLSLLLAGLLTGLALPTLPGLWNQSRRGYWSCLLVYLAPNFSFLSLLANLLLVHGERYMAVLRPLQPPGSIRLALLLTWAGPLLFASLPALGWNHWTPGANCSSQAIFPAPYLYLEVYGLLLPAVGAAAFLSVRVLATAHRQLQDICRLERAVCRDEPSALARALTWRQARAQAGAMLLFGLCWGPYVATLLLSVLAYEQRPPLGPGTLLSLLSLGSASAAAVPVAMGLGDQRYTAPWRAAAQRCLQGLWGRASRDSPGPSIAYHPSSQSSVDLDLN
Method in brief: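 cAMP HTRF read-out, converted to concentration via standard curve, after a 30 min, 37 °C compound exposure in HBSS with 10 mM HEPES pH 7.4 and 0.5 mM IBMX, compounds serially diluted 3-fold from 10 mM DMSO stock then 100-fold. Cells: stable human TGR5 HEK293, or NCI-H716 expressing TGR5 endogenously.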

Structure (SMILES): O=C([C@H]1CCCCN1Cc1cc(Cl)ccc1Cl)N1CCN(C2CC2)c2ccccc21 [Example 16, (R)-(4-cyclopropyl-3,4-dihydroquinoxaline-1(2H)-yl)(1-(2,5-dichlorobenzyl)piperidin-2-yl) methanone]
- EC50 [1]: > 25.1 µM

Structure (SMILES): CN(C[C@H](O)[C@@H](O)[C@H](O)[C@H](O)CO)C(=O)CC[C@H](NC(=O)CCCCc1cc(Cl)c(CN2CSC[C@H]2C(=O)N2CCN(C3CC3)c3ccccc32)cc1Cl)C(=O)O [Example 278]
- Number of Mice with Plasma Concentration < LLOQ [2]: 5/8
- concentration at 8 h [2]: 2.3 ng/mL
- Number of Mice with Gallbladder Concentration < LLOQ [3]: 0/8
- concentration at 8 h [3]: 3100 nM
- EC50 [4]: 0.126 to 1 µM

Structure (SMILES): O=C([C@@H]1C[C@H](O)CN1Cc1cc(Cl)ccc1Cl)N1CCN(C2CC2)c2ccccc21 [Example 6, (4-cyclopropyl-3,4-dihydroquinoxalin-1(2H)-yl)((2S,4S)-1-(2,5-dichlorobenzyl)-4-hydroxypyrrolidin-2-yl)methanone]
- EC50 [1]: > 25.1 µM

Structure (SMILES): C[C@@]1(C(=O)N2CCN(C3CC3)c3ccccc32)CCCN1Cc1cc(Cl)ccc1Cl [Example 20, (S)-(4-cyclopropyl-3,4-dihydroquinoxaline-1(2H)-yl)(1-(2,5-dichlorobenzyl)-2-methylpyrrolidin-2-yl)methanone]
- EC50 [1]: > 25.1 µM

Structure (SMILES): CN(C[C@H](O)[C@@H](O)[C@@H](O)[C@H](O)CO)C(=O)CCCCc1cc(Cl)c(CN2CSC[C@H]2C(=O)N2CCN(C3CC3)c3ccccc32)cc1Cl [Example 239]
- Number of Mice with Plasma Concentration < LLOQ [2]: 6/8
- concentration at 8 h [2]: 2 ng/mL
- Number of Mice with Gallbladder Concentration < LLOQ [3]: 8/8
- concentration at 8 h [3]: < 3 nM

Structure (SMILES): O=C([C@@H]1C[C@H](F)CN1Cc1cc(Cl)ccc1Cl)N1CCN(C2CC2)c2ccccc21 [Example 3, (4-cyclopropyl-3,4-dihydroquinoxalin-1(2H)-yl)((2S,4S)-1-(2,5-dichlorobenzyl)-4-fluoropyrrolidin-2-yl)methanone]
- EC50 [1]: > 25.1 µM

Structure (SMILES): O=C([C@@H]1CCCN1Cc1cc(Cl)ccc1Cl)N1CCN(C2CC2)c2ccccc21 [Example 12, (S)-(4-cyclopropyl-3,4-dihydroquinoxalin-1(2H)-yl)(1-(2,5-dichlorobenzyl)pyrrolidin-2-yl)methanone]
- EC50 [1]: > 25.1 µM

Structure (SMILES): O=C(CCc1cc(Cl)c(CN2CSC[C@H]2C(=O)N2CCN(C3CC3)c3ccccc32)cc1Cl)NC[C@H](O)[C@@H](O)C(O)[C@H](O)CO (stereo in doubt) [Example 97, 3-(2,5-dichloro-4-(((R)-4-(4-cyclopropyl-1,2,3,4-tetrahydroquinoxaline-1-carbonyl)thiazolidin-3-yl)methyl)phenyl)-N-((2S,3R,4R,5R)-2,3,4,5,6-pentahydroxyhexyl)propanamide]
- Number of Mice with Plasma Concentration < LLOQ [2]: 7/8
- Number of Mice with Gallbladder Concentration < LLOQ [3]: 0/8
- concentration at 8 h [3]: 520 nM

Structure (SMILES): O=C(NCCCCCc1cc(Cl)c(CN2CSC[C@H]2C(=O)N2CCN(C3CC3)c3ccccc32)cc1Cl)NCP(=O)(O)O [Example 283]
- Number of Mice with Plasma Concentration < LLOQ [2]: 7/8
- concentration at 8 h [2]: 24.8 ng/mL
- Number of Mice with Gallbladder Concentration < LLOQ [3]: 0/8
- concentration at 8 h [3]: 3060 nM
- EC50 [4]: 0.126 to 1 µM

Structure (SMILES): O=C([C@@H]1CCCCN1Cc1cc(Cl)ccc1Cl)N1CCN(C2CC2)c2ccccc21 [Example 14, (S)-(4-cyclopropyl-3,4-dihydroquinoxaline-1(2H)-yl)(1-(2,5-dichlorobenzyl)piperidin-2-yl) methanone]
- EC50 [1]: > 25.1 µM

Structure (SMILES): O=C(NCCCCCc1cc(Cl)c(CN2CSC[C@H]2C(=O)N2CCN(C3CC3)c3ccccc32)cc1Cl)N1CCN(CP(=O)(O)O)CC1 [Example 282]
- Number of Mice with Plasma Concentration < LLOQ [2]: 0/8
- concentration at 8 h [2]: 2.8 ng/mL
- Number of Mice with Gallbladder Concentration < LLOQ [3]: 0/7
- concentration at 8 h [3]: 80 nM
- EC50 [4]: < 0.1 µM

Structure (SMILES): O=C([C@@H]1COCCN1Cc1cc(Cl)ccc1Cl)N1CCN(C2CC2)c2ccccc21 [Example 23, (S)-(4-cyclopropyl-3,4-dihydroquinoxaline-1(2H)-yl)(4-(2,5-dichlorobenzyl)morpholin-3-yl)methanone]
- EC50 [1]: > 25.1 µM

Structure (SMILES): O=C([C@H]1CCCN1Cc1cc(Cl)ccc1Cl)N1CCN(C2CC2)c2ccccc21 [Example 15, (R)-(4-cyclopropyl-3,4-dihydroquinoxalin-1(2H)-yl)(1-(2,5-dichlorobenzyl)pyrrolidin-2-yl)methanone]
- EC50 [1]: > 25.1 µM

Structure (SMILES): O=C(NC[C@H](O)[C@@H](O)[C@H](O)[C@H](O)CO)c1ccc(OCc2cc(Cl)c(CN3CSC[C@H]3C(=O)N3CCN(C4CC4)c4ccccc43)cc2Cl)nc1 [Example 285]
- Number of Mice with Plasma Concentration < LLOQ [2]: 2/8
- Number of Mice with Gallbladder Concentration < LLOQ [3]: 0/8

Structure (SMILES): C[C@H](CCC(=O)O)[C@H]1CC[C@H]2[C@@H]3[C@H](O)C[C@@H]4C[C@H](O)CC[C@]4(C)[C@H]3CC[C@]12C [chenodeoxycholic acid, reference compound]
- inhibition of uptake of [3H]taurocholic acid ([1]; IBAT-transfected HEK293 cells, potency similar to that reported by Craddock): inhibited uptake

Structure (SMILES): CN(C[C@@H](O)[C@H](O)[C@@H](O)[C@@H](O)CO)C(=O)NCCCCc1cc(Cl)c(CN2CSC[C@H]2C(=O)N2CCN(C3CC3)c3ccccc32)cc1Cl [Example 208]
- Number of Mice with Plasma Concentration < LLOQ [2]: 7/7
- concentration at 8 h [2]: < 0.5 ng/mL
- Number of Mice with Gallbladder Concentration < LLOQ [3]: 0/7

Structure (SMILES): O=C([C@@H]1C[C@@H](O)CN1Cc1cc(Cl)ccc1Cl)N1CCN(C2CC2)c2ccccc21 [Example 2, (4-cyclopropyl-3,4-dihydroquinoxalin-1(2H)-yl)((2S,4R)-1-(2,5-dichlorobenzyl)-4-hydroxypyrrolidin-2-yl)methanone]
- EC50 [1]: > 25.1 µM

Structure (SMILES): O=C([C@@H]1CCCN1Cc1cc(Cl)ccc1Cl)N1CCCc2ccccc21 [Example 10, (S)-(1-(2,5-dichlorobenzyl)pyrrolidin-2-yl)(3,4-dihydroquinolin-1(2H)-yl)methanone]
- EC50 [1]: > 25.1 µM

Structure (SMILES): CN(C[C@H](O)[C@@H](O)[C@@H](O)[C@H](O)CO)C(=O)CCc1cc(Cl)c(CN2CSC[C@H]2C(=O)N2CCN(C3CC3)c3ccccc32)cc1Cl [Example 98, 3-(2,5-dichloro-4-(((R)-4-(4-cyclopropyl-1,2,3,4-tetrahydroquinoxaline-1-carbonyl)thiazolidin-3-yl)methyl)phenyl)-N-methyl-N-((2S,3R,4S,5R)-2,3,4,5,6-pentahydroxyhexyl)propanamide]
- Number of Mice with Plasma Concentration < LLOQ [2]: 4/8
- Number of Mice with Gallbladder Concentration < LLOQ [3]: 0/8

Structure (SMILES): CN(C[C@H](O)[C@@H](O)[C@H](O)[C@H](O)CO)C(=O)CCc1cc(Cl)c(CN2CSC[C@H]2C(=O)N2CCN(C3CC3)c3ccccc32)cc1Cl [Example 237]
- Number of Mice with Plasma Concentration < LLOQ [2]: 7/8
- Number of Mice with Gallbladder Concentration < LLOQ [3]: 1/8

Structure (SMILES): C[C@@H](NC(=O)[C@@H](C)NC(=O)[C@@H](C)NC(=O)CCCCc1cc(Cl)c(CN2CSC[C@H]2C(=O)N2CCN(C3CC3)c3ccccc32)cc1Cl)C(=O)O [Example 227]
- Number of Mice with Plasma Concentration < LLOQ [2]: 7/8
- concentration at 8 h [2]: 0.6 ng/mL
- Number of Mice with Gallbladder Concentration < LLOQ [3]: 0/7
- concentration at 8 h [3]: 1730 nM
- EC50 [4]: < 0.1 µM

Structure (SMILES): O=C([C@@H]1CSCCN1Cc1cc(Cl)ccc1Cl)N1CCN(C2CC2)c2ccccc21 [Example 22, (R)-(4-cyclopropyl-3,4-dihydroquinoxaline-1(2H)-yl)(4-(2,5-dichlorobenzyl)thiomorpholin-3-yl)methanone]
- EC50 [1]: > 25.1 µM

Reference: patent US20150148311A1, “NON-SYSTEMIC TGR5 AGONISTS” (Ardelyx, Inc., priority 2011, published 2015)
